From PMC3282105, “Antitumoral activity of allosteric inhibitors of protein kinase CK2” (2011) come the findings set out here.

This experiment concerns the target T1, CK2α (Homo sapiens, UniProt P68400).
T1 construct: gene CSNK2A1; human recombinant CK2α; rhCK2αΔC(1-335)
T1 sequence (P68400 1-335): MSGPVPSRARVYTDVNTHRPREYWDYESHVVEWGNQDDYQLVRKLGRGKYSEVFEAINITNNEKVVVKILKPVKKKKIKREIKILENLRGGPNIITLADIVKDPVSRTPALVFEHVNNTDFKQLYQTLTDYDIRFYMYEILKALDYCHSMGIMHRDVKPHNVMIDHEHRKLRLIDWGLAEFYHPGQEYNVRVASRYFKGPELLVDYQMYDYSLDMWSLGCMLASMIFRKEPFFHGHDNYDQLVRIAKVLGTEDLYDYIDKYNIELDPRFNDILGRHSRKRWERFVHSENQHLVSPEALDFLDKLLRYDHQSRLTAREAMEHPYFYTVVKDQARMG
The experiment is described as follows: radiometric kinase assay dose-response, Lineweaver-Burk kinetics, mutant panel. In kind it is biochemical.

The structures appear in SMILES notation.

For orientation: IC50 means the concentration that inhibits the measured activity by half. A lower IC50 goes with higher potency. For `O=[N+]([O-])c1ccc2c(N=Nc3ccc4ccccc4c3O)c(O)cc(S(=O)(=O)O)c2c1` [compound 4, Eriochrome Black T], the IC50 is about 0.4 µM.
